The values that follow come from patent US8809336B2, “Ortho-condensed pyridine and pyrimidine derivatives (e.g., purines) as protein kinases inhibitors” (Astex Therapeutics Limited, priority 2004, dated 2014).

Usually IC50 stands for the concentration that inhibits the measured activity by half.

Assay [1] deals with T1, PKB-PIF fusion protein (Homo sapiens, UniProt P31751).
T1 construct: PIF (fusion partner); made in house
Description: Measurement of PKB kinase inhibitory activity (IC50), 33P-ATP phosphocellulose filter assay. In kind it is biochemical. Here is the method:
The inhibition of protein kinase B (PKB) activity by compounds can be determined essentially as described by Andjelkovic et al. (Mol. Cell. Biol. 19, 5061-5072 (1999)) but using a fusion protein described as PKB-PIF and described in full by Yang et al (Nature Structural Biology 9, 940-944 (2002)). […] A final concentration of 0.6 nM enzyme is used in a buffer that includes 20 mM MOPS pH 7.2, 30 μM ATP/γ^33P-ATP and 25 μM substrate.
Compounds are added in DMSO solution to a final DMSO concentration of 2.5%. The reaction is allowed to proceed for 20 minutes before addition of excess orthophosphoric acid to quench activity. The reaction mixture is transferred to a phosphocellulose filter plate where the peptide binds and the unused ATP is washed away. After washing, scintillant is added and the incorporated activity measured by scintillation counting.
The % inhibition of the PKB activity is calculated and plotted in order to determine the concentration of test compound required to inhibit 50% of the PKB activity (IC50).

For assay [2], the target named is T2, PKA catalytic domain (Homo sapiens, UniProt P17612).
T2 construct: using the PKA catalytic domain from Upstate Biotechnology (#14-440); purchased Upstate Biotechnology 14-440
Kind of assay: Measurement of PKA kinase inhibitory activity (IC50), 33P-ATP filter plate assay. The following applies: 1 nM enzyme, 40 μM ATP, 20 minutes; read-out: IC50, inhibition of PKA activity. In kind it is biochemical. As for the experimental part:
A final concentration of 1 nM enzyme is used in a buffer that includes 20 mM MOPS pH 7.2, 40 μM ATP/γ^33P-ATP and […] substrate. Compounds are added in dimethylsulphoxide (DMSO) solution to a final DMSO concentration of 2.5%. The reaction is allowed to proceed for 20 minutes before addition of excess orthophosphoric acid to quench activity. Unincorporated γ^33P-ATP is then separated from phosphorylated proteins on a Millipore MAPH filter plate. The plates are washed, scintillant is added and the plates are then subjected to counting on a Packard Topcount.

Setting [3] is: 0.6 nM enzyme, 30 μM ATP, 25 μM AKTide-2T substrate, 20 minutes, read-out: IC50, inhibition of PKB activity.

Read-outs that look alike come from different tables or passages of the source.

T1 sequence (P31751 with tags, fused parts or gaps limits assumed): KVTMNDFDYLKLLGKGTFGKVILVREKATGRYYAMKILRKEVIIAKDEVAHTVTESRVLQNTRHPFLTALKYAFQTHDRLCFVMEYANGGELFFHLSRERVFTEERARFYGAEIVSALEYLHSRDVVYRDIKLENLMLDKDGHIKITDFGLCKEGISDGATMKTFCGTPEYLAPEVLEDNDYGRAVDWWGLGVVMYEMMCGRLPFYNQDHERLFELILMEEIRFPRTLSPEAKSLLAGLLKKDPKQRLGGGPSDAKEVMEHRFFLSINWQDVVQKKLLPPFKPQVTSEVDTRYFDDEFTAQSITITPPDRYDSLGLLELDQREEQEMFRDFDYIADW

As to `CNC1CCN(c2ncnc3[nH]cnc23)CC1` [Example 1, Methyl-[1-(9H-purin-6-yl)-piperidin-4-yl]-amine], the concentration for half-maximal inhibition (IC50) in assay [1] (setting [3]) and in assay [2] was under 10 µM in each case.
With `c1ccc(CNC2CCN(c3ncnc4[nH]cnc34)CC2)cc1` [Example 2, Benzyl-[1-(9H-purin-6-yl)-piperidin-4-yl]-amine], in assay [1] (setting [3]), the IC50 was under 10 µM.
Regarding `NC1CCN(c2ncnc3[nH]c(=O)[nH]c23)CC1` [Example 4, 6-(4-Aminopiperidin-1-yl)-7,9-dihydropurin-8-one], the IC50 in assay [1] (setting [3]) was under 10 µM; in assay [2], under 50 µM.
For the compound `O=c1[nH]c2ncnc(N3CCC(O)(Cc4ccccc4)CC3)c2[nH]1` [Example 5, 6-(4-Benzyl-4-hydroxypiperidin-1-yl)-7,9-dihydropurin-8-one], the half-maximal inhibitory concentration (IC50) in assay [1] (setting [3]) and in assay [2] was under 50 µM in each case.
Turning to `O=c1[nH]c2ncnc(N3CCNCC3)c2[nH]1` [Example 6, 6-(Piperazin-1-yl)-7,9-dihydropurin-8-one], the IC50 in assay [1] (setting [3]) and in assay [2] was under 10 µM each time.
As to `O=c1[nH]c2ncnc(N3CCN[C@H](COCc4ccccc4)C3)c2[nH]1` [Example 7, (3S)-6-(3-Benzyloxymethylpiperazin-1-yl)-7,9-dihydropurin-8-one], the 50% inhibitory concentration (IC50) in assay [1] (setting [3]) and in assay [2] was under 50 µM each time.
Take `O=c1[nH]c2ncnc(N3CCC(NCCc4ccccc4)CC3)c2[nH]1` [Example 8, 6-(4-Phenethylaminopiperidin-1-yl)-7,9-dihydro-purin-8-one]: the half-inhibitory concentration (IC50) in assay [1] (setting [3]) and in assay [2] was under 10 µM in each case.
With `O=c1[nH]c2ncnc(N3CCC(NCc4ccccc4Cl)CC3)c2[nH]1` [Example 9, 6-[4-(2-Chlorobenzylamino)-piperidin-1-yl]-7,9-dihydro-purin-8-one], the IC50 in assay [1] (setting [3]) and in assay [2] was under 50 µM each time.
Take `O=c1[nH]c2ncnc(N3CCC(NCc4cccc(Cl)c4)CC3)c2[nH]1` [Example 10, 6-[4-(3-Chlorobenzylamino)-piperidin-1-yl]-7,9-dihydro-purin-8-one]: the IC50 in assay [1] (setting [3]) and in assay [2] was under 10 µM in each case.
Take `NC1CCN(c2ncnc3[nH]ncc23)CC1` [Example 11, 1-(1H-Pyrazolo[3,4-d]pyrimidin-4-yl)-piperidin-4-ylamine]: the IC50 in assay [1] (setting [3]) and in assay [2] was under 10 µM throughout.
For the compound `NC1CCN(c2ncnc3[nH]ccc23)CC1` [Example 12, 1-(7H-Pyrrolo[2,3-d]pyrimidin-4-yl)-piperidin-4-ylamine], the concentration for half-maximal inhibition (IC50) in assay [1] (setting [3]) and in assay [2] was under 10 µM throughout.
In the case of `NC1CCN(c2ccnc3[nH]ccc23)CC1` [Example 13, 1-(1H-Pyrrolo[2,3-b]pyridin-4-yl)-piperidin-4-ylamine], the IC50 in assay [1] (setting [3]) and in assay [2] was under 10 µM each time.
In the case of `NCC1(c2ccc(Cl)cc2)CCN(c2ncnc3[nH]ccc23)CC1` [Example 14, C-[4-(4-Chloro-phenyl)-1-(7H-pyrrolo[2,3-d]pyrimidin-4-yl)-piperidin-4-yl]-methylamine], the IC50 in assay [1] (setting [3]) and in assay [2] was under 10 µM throughout.
For the compound `NCC1(c2ccc(Cl)cc2)CCN(c2ncnc3[nH]cnc23)CC1` [Example 15, C-[4-(4-Chloro-phenyl)-1-(9H-purin-6-yl)-piperidin-4-yl]-methylamine], in assay [1] (setting [3]), the IC50 was under 10 µM.
Regarding `NC1(Cc2ccccc2)CCN(c2ncnc3[nH]cnc23)CC1` [Example 16, 4-Benzyl-1-(9H-purin-6-yl)piperidin-4-ylamine], in assay [1] (setting [3]), the IC50 was under 10 µM.
`NC1(Cc2ccc(Cl)cc2)CCN(c2ncnc3[nH]cnc23)CC1` [Example 18, 4-(4-Chlorobenzyl)-1-(9H-purin-6-yl)piperidin-4-yl amine]: the concentration for half-maximal inhibition (IC50) in assay [1] (setting [3]) and in assay [2] was under 10 µM throughout.
For `NCC1(c2ccc(Cl)cc2)CCN(c2ccnc3[nH]ccc23)CC1` [Example 21, C-[4-(4-Chlorophenyl)-1-(1H-pyrrolo[2,3-b]pyridin-4-yl)piperidin-4-yl]methylamine], in assay [1] (setting [3]), the IC50 was under 10 µM.
As to `CCn1c(=O)[nH]c2ncnc(N3CCC(CN)(c4ccc(Cl)cc4)CC3)c21` [Example 22, 6-[4-Aminomethyl-4-(4-chlorophenyl)piperidin-1-yl]-7-ethyl-7,9-dihydro-purin-8-one], the IC50 in assay [1] (setting [3]) was under 10 µM.
The same measure, in the same setting: to `NCC1(Cc2ccc(Cl)cc2)CCN(c2ncnc3[nH]cnc23)CC1` [Example 23, C-[4-(4-Chlorobenzyl)-1-(9H-purin-6-yl)piperidin-4-yl]methylamine] belongs under 10 µM.
For the compound `N#CC1(c2ccc(Cl)cc2)CCN(c2ncnc3[nH]ccc23)CC1` [Example 24, 4-(4-Chlorophenyl)-1-(7H-pyrrolo[2,3-d]pyrimidin-4-yl)piperidine-4-carbonitrile], the half-maximal inhibitory concentration (IC50) in assay [1] is under 10 µM.
Consider `NCC1(c2cccc(Cl)c2)CCN(c2ncnc3[nH]cnc23)CC1` [Example 27, C-[4-(3-Chlorophenyl)-1-(9H-purin-6-yl)piperidin-4-yl]methylamine], for which the IC50 in assay [1] (setting [3]) was under 10 µM.
For the compound `NCC1(c2ccc(Cl)c(Cl)c2)CCN(c2ncnc3[nH]cnc23)CC1` [Example 29, C-[4-(3,4-Dichlorophenyl)-1-(9H-purin-6-yl)piperidin-4-yl]methylamine], the half-maximal inhibitory concentration (IC50) in assay [1] (setting [3]) is under 10 µM.
As to `NCC1(c2ccc(OC(F)(F)F)cc2)CCN(c2ncnc3[nH]ccc23)CC1` [Example 30], the IC50 in assay [1] (setting [3]) was under 10 µM.
For the compound `NCC1(c2ccc(C(F)(F)F)cc2)CCN(c2ncnc3[nH]cnc23)CC1` [Example 33, C-[1-(9H-Purin-6-yl)-4-(4-trifluoromethylphenyl)piperidin-4-yl]methylamine], the concentration for half-maximal inhibition (IC50) in assay [1] (setting [3]) was under 10 µM.
As to `NCC1(c2cccc(C(F)(F)F)c2)CCN(c2ncnc3[nH]ccc23)CC1` [Example 34, C-[1-(7H-Pyrrolo[2,3-d]pyrimidin-4-yl)-4-(3-trifluoromethylphenyl)piperidin-4-yl]methylamine], in assay [1] (setting [3]), the IC50 is under 10 µM.
For `NCC1(c2cccc(C(F)(F)F)c2)CCN(c2ncnc3[nH]cnc23)CC1` [Example 35, C-[1-(9H-Purin-6-yl)-4-(3-trifluoromethylphenyl)piperidin-4-yl]methylamine], the IC50 in assay [1] (setting [3]) was under 10 µM.
`NCC1(c2ccc(F)c(F)c2)CCN(c2ncnc3[nH]ccc23)CC1` [Example 36, C-[4-(3,4-Difluorophenyl)-1-(7H-pyrrolo[2,3-d]pyrimidin-4-yl)piperidin-4-yl]methylamine]: in assay [1] (setting [3]), the IC50 was under 10 µM.
As to `NCC1(c2ccc(F)c(F)c2)CCN(c2ncnc3[nH]cnc23)CC1` [Example 37, C-[4-(3,4-Difluorophenyl)-1-(9H-purin-6-yl)piperidin-4-yl]methylamine], the 50% inhibitory concentration (IC50) in assay [1] (setting [3]) is under 10 µM.
As for `COc1ccc(C2(CN)CCN(c3ncnc4[nH]cnc34)CC2)cc1` [Example 39, C-[4-(4-Methoxyphenyl)-1-(9H-purin-6-yl)piperidin-4-yl]methylamine], the concentration for half-maximal inhibition (IC50) in assay [1] (setting [3]) was under 10 µM.
As for `NCC1(c2ccc(OCc3ccccc3)cc2)CCN(c2ncnc3[nH]cnc23)CC1` [Example 41, C-[4-(4-Benzyloxyphenyl)-1-(9H-purin-6-yl)piperidin-4-yl]methylamine], the concentration for half-maximal inhibition (IC50) in assay [1] (setting [3]) was under 10 µM.
With `CC(C)NCC1(c2ccc(Cl)cc2)CCN(c2ncnc3[nH]ccc23)CC1` [Example 43, [4-(4-Chlorophenyl)-1-(7H-pyrrolo[2,3-d]pyrimidin-4-yl)-piperidin-4-ylmethyl]-isopropylamine], in assay [1] (setting [3]), the half-inhibitory concentration (IC50) was under 10 µM.
For `NCC1(Cc2ccc(Cl)c(Cl)c2)CCN(c2ncnc3[nH]ccc23)CC1` [Example 45, C-[4-(3,4-Dichlorobenzyl)-1-(7H-pyrrolo[2,3-d]pyrimidin-4-yl)piperidin-4-yl]methylamine], in assay [1] (setting [3]), the IC50 was under 10 µM.
Same read-out and setting: to `NCC1(Cc2ccc(Cl)c(Cl)c2)CCN(c2ncnc3[nH]cnc23)CC1` [Example 46, C-[4-(3,4-Dichlorobenzyl)-1-(9H-purin-6-yl)piperidin-4-yl]methylamine] belongs under 10 µM.
As to `NCC1(Cc2ccc(OC(F)(F)F)cc2)CCN(c2ncnc3[nH]ccc23)CC1` [Example 47, C-[1-(7H-Pyrrolo[2,3-d]pyrimidin-4-yl)-4-(4-trifluoromethoxybenzyl)piperidin-4-yl]methylamine], the half-inhibitory concentration (IC50) in assay [1] (setting [3]) was under 10 µM.
For `NCC1(Cc2ccc(OC(F)(F)F)cc2)CCN(c2ncnc3[nH]cnc23)CC1` [Example 48, C-[1-(9H-Purin-6-yl)-4-(4-trifluoromethoxybenzyl)piperidin-4-yl]methylamine], the IC50 in assay [1] (setting [3]) is under 10 µM.
Take `NC1(Cc2ccc(Cl)c(Cl)c2)CCN(c2ncnc3[nH]cnc23)CC1` [Example 50, 4-(3,4-Dichlorobenzyl)-1-(9H-purin-6-yl)piperidin-4-yl amine]: the IC50 in assay [1] (setting [3]) is under 10 µM.
On to `NC1(Cc2ccc(OC(F)(F)F)cc2)CCN(c2ncnc3[nH]cnc23)CC1` [Example 52, 1-(9H-Purin-6-yl)-4-(4-trifluoromethoxybenzyl)piperidin-4-ylamine], for which the IC50 in assay [1] (setting [3]) is under 10 µM.
